# Marks after values point to notes of the source that are not given here.
# Assays:
# [1] = target: T1, N-cadherin/Fc chimeric protein (Homo sapiens, UniProt P19022); assay: Cadherin/Fc binding assay: phage ELISA on N-cadherin/Fc; parameters: key to ELISA Phage Binding to N-Cadherin/Fc Chimeric Protein 1.2 mM calcium / ELISA Phage Binding to N-Cadherin/Fc Chimeric Protein 2 mM EDTA / ELISA Phage Binding to Cadherin/Fc Chimeric Proteins N−: +: Phage bound to the chimeric protein; −: No phage bound to the chimeric protein; conditions: for ELISA Phage Binding to N-Cadherin/Fc Chimeric Protein 1.2 mM calcium / ELISA Phage Binding to N-Cadherin/Fc Chimeric Protein 2 mM EDTA: Table 4, Ph.D.-12 library clones
# T1 construct: extracellular domain of human N-cadherin (Asp160-Ala724); purchased R&D Systems, Minneapolis, Minn
# T1 sequence (P19022 160-724): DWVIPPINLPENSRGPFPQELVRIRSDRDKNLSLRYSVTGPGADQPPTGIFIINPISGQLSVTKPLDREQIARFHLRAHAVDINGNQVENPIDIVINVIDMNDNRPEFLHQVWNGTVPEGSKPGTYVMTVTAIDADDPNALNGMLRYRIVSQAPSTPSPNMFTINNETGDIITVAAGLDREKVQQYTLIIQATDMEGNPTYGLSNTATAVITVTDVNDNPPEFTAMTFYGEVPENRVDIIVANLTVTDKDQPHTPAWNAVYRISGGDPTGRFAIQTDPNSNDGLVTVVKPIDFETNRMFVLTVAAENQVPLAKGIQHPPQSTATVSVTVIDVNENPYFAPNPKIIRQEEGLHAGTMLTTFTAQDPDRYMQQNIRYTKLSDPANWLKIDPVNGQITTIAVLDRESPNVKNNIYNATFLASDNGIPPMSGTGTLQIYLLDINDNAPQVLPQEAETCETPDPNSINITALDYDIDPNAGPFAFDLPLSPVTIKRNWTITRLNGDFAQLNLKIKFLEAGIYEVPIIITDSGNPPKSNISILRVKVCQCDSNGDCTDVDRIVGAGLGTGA
# Description: (§1) The peptide libraries, Ph.D.-C7C™ and Ph.D.-12™ (New England BioLabs) were used in this study. These libraries are composed of 2×10^9 randomized 7 amino acid sequences flanked by cysteine residues and linear 12 amino acid sequences, respectively. The amino acid sequences are incorporated into the minor coat protein, pIII, of M13 phage. The N-cadherin/Fc chimeric protein (R&D Systems, Minneapolis, Minn.) consists of the extracellular domain of human N-cadherin (Asp160-Ala724) and the Fc region of human IgG1. The E-cadherin/Fc chimeric protein (R&D Systems, Minneapolis, Minn.) consists of the extracellular domain of human E-cadherin (Asp155-Ile707) and the Fc region of human IgG1.
# The binding of each clone to the cadherin/Fc chimeric proteins was confirmed by ELISA. Wells of ProBind microtiter plates (Falcon) were coated with either N-cadherin/Fc or E-cadherin/Fc chimeric protein (100 ng/well) or human IgG1 (which contains the Fc fragment) (100 ng/well). […] Non-coated wells were also used to exclude any phage that bound to the plastic surface. […] M13 phage without any insert were used to control the non-specific binding of the phage itself to the target. […] […] Horseradish peroxidase substrate, TMB (Sigma), was added to each well (100 μl/well and after color development the reaction was stopped by addition of 100 μl 0.5 M sulphuric acid to each well. The intensity of the color was measured at 450 nm.
# (§2) The phage clones shown to bind to the N-cadherin/Fc chimeric protein by ELISA were also evaluated for their ability to bind to E-cadherin/Fc and VE-cadherin/Fc chimeric proteins. The phage clones shown to bind to the E-cadherin/Fc chimeric protein by ELISA were also evaluated for their ability to bind to N-cadherin/Fc and VE-cadherin/Fc chimeric proteins. The same ELISA protocol described in the previous section was used to perform this evaluation with the exception that the wells were coated with either 100 ng N-cadherin/Fc, E-cadherin/Fc or VE-cadherin/Fc chimeric protein (R&D Systems, Minneapolis, Minn.).
# [2] = target: T2, E-cadherin/Fc chimeric protein (Homo sapiens, UniProt P12830); assay: Cadherin/Fc binding assay: phage ELISA on E-cadherin/Fc; parameters: key: +: Phage bound to the chimeric protein; −: No phage bound to the chimeric protein
# T2 construct: extracellular domain of human E-cadherin (Asp155-Ile707); purchased R&D Systems, Minneapolis, Minn
# T2 sequence (P12830 155-707): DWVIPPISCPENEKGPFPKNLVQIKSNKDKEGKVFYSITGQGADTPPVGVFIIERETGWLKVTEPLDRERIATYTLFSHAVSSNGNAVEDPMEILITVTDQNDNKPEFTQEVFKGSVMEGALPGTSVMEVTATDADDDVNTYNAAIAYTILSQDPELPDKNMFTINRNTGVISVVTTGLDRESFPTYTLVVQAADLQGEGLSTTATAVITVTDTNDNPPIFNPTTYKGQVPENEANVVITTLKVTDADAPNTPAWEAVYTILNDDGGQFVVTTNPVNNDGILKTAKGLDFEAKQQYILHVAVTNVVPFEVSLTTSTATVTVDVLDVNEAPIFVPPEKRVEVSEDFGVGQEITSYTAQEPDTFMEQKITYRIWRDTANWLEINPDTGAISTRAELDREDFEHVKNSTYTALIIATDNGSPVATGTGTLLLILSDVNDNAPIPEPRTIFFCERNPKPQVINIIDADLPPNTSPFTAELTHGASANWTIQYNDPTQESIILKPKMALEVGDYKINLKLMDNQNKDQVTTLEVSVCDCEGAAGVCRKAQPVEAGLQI
# Description: as §1
# (§3) The binding of each clone to the cadherin/Fc chimeric proteins was confirmed by ELISA. Wells of ProBind microtiter plates (Falcon) were coated with either N-cadherin/Fc or E-cadherin/Fc chimeric protein (100 ng/well) or human IgG1 (which contains the Fc fragment) (100 ng/well). After blocking the nonspecific sites with TBS containing 3% BSA and 1.2 mM CaCl2 for 1 h at 37° C., phage clones (10^9 pfu) diluted in TBST containing 3% BSA and 1.2 mM CaCl2 (100 μl/well). Non-coated wells were also used to exclude any phage that bound to the plastic surface. After 1 h incubation at room temperature, wells were washed 3 times with TBST containing 3% BSA and 1.2 mM CaCl2. M13 phage without any insert were used to control the non-specific binding of the phage itself to the target. Monoclonal anti-M13 antibody conjugated to horseradish peroxidase (Amersham Biosciences, Piscataway, N.J.) was diluted in TBST containing 3% BSA and 1.2 mM CaCl2 (1:2,000) and added to each well (100 μl/well). After 1 h incubation at room temperature, wells were washed three times with TBST containing 3% BSA and 1.2 mM CaCl2 and once with TBS containing 1.2 mM CaCl2. Horseradish peroxidase substrate, TMB (Sigma), was added to each well (100 μl/well and after color development the reaction was stopped by addition of 100 μl 0.5 M sulphuric acid to each well. The intensity of the color was measured at 450 nm.
# as §2
# [3] = target: T3, VE-cadherin/Fc chimeric protein (Homo sapiens, UniProt P33151); assay: Cadherin specificity: phage ELISA on VE-cadherin/Fc; format: binding; parameters: key: +: Phage bound to the chimeric protein; −: No phage bound to the chimeric protein
# T3 construct: purchased R&D Systems, Minneapolis, Minn
# T3 sequence (P33151 with tags, fused parts or gaps limits assumed, species assumed): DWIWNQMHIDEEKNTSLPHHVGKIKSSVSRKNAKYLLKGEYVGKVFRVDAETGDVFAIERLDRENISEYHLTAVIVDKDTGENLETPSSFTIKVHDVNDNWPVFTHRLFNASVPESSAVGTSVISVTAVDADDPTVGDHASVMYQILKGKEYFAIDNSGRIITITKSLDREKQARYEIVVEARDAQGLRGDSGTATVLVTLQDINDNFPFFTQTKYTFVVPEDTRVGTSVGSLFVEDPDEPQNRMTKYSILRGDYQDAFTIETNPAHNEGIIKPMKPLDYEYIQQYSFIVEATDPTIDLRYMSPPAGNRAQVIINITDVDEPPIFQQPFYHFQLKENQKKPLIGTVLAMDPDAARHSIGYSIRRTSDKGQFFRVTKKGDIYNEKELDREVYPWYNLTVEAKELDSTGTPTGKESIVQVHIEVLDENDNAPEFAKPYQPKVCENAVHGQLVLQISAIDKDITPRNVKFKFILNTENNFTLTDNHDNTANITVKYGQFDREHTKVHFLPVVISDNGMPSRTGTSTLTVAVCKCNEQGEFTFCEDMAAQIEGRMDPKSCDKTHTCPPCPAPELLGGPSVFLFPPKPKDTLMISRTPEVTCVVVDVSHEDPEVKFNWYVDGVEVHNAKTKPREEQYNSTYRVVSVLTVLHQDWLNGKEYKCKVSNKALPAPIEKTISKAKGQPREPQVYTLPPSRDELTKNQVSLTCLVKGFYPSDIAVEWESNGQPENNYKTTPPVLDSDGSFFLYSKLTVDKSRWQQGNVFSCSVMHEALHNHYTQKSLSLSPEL
# Method: as §3, §2
# [4] = Table 4, Ph.D.-12 library clones
# [5] = Table 7, Ph.D.-12 clones selected on E-cadherin/Fc
# [6] = Table 6, Ph.D.-C7C clones selected on E-cadherin/Fc
Sequence,"ELISA Phage Binding to Cadherin/Fc Chimeric Proteins N− [1, 5]","ELISA Phage Binding to Cadherin/Fc Chimeric Proteins E− [2, 5]","ELISA Phage Binding to Cadherin/Fc Chimeric Proteins VE− [3, 5]",further results
AWQVHYSYVASS [Nc 12-a7],,,,"ELISA Phage Binding to N-Cadherin/Fc Chimeric Protein 1.2 mM calcium [1]: +; ELISA Phage Binding to N-Cadherin/Fc Chimeric Protein 2 mM EDTA [1]: +; ELISA Phage Binding to Cadherin/Fc Chimeric Proteins E− [2, 4]: +; ELISA Phage Binding to Cadherin/Fc Chimeric Proteins VE− [3, 4]: −"
AWTWSLPTLPQS [Ec 12-a5],+,+,−,
CSKYNSPLC [Ec a4],,,,"ELISA Phage Binding to Cadherin/Fc Chimeric Proteins N− [1, 6]: +; ELISA Phage Binding to Cadherin/Fc Chimeric Proteins E− [2, 6]: +; ELISA Phage Binding to Cadherin/Fc Chimeric Proteins VE− [3, 6]: −"
CSRPQSGLC [Ec a23],,,,"ELISA Phage Binding to Cadherin/Fc Chimeric Proteins N− [1, 6]: +; ELISA Phage Binding to Cadherin/Fc Chimeric Proteins E− [2, 6]: +; ELISA Phage Binding to Cadherin/Fc Chimeric Proteins VE− [3, 6]: −"
EWDFFWPPTQTP [Ec 12-19],+,+,−,
EWFWSWPGYSNT [Ec 12-a13],+,+,−,
EWMIHYDSALTS [Nc 12-a6],,,,"ELISA Phage Binding to N-Cadherin/Fc Chimeric Protein 1.2 mM calcium [1]: +; ELISA Phage Binding to N-Cadherin/Fc Chimeric Protein 2 mM EDTA [1]: +; ELISA Phage Binding to Cadherin/Fc Chimeric Proteins E− [2, 4]: +; ELISA Phage Binding to Cadherin/Fc Chimeric Proteins VE− [3, 4]: −"
EWQYHWPTLQSR [Ec 12-22],+,+,−,
EWTFQWNSYPAD [Ec 12-10],+,+,−,
EWTWVFPTTHTS [Ec 12-07],+,+,−,
EWTYTFPTAHSI [Ec 12-a18],+,+,−,
GWTVFYPDNLRP [Ec 12-18],+,+,−,
HWYITTGPVREK [Nc 12-01],,,,"ELISA Phage Binding to N-Cadherin/Fc Chimeric Protein 1.2 mM calcium [1]: +*; ELISA Phage Binding to N-Cadherin/Fc Chimeric Protein 2 mM EDTA [1]: +; ELISA Phage Binding to Cadherin/Fc Chimeric Proteins E− [2, 4]: −**; ELISA Phage Binding to Cadherin/Fc Chimeric Proteins VE− [3, 4]: −"

# Source: patent publication US8603986B2, “Compounds and methods for modulating cadherin-mediated processes” (McGill University, priority 2005, dated 2013)
